Data published in the supplement of paper PMC10307832.

Tests used:
Assay in all cases: relative viability (nuclei count vs DMSO), 5 days (fraction); higher = more cells survive
BMX-IN-1 + Foretinib = compound: C=CC(=O)Nc1cc(-n2c(=O)ccc3cnc4ccc(-c5ccc(NS(C)(=O)=O)cc5)cc4c32)ccc1C [BMX-IN-1] + COc1cc2c(Oc3ccc(NC(=O)C4(C(=O)Nc5ccc(F)cc5)CC4)cc3F)ccnc2cc1OCCCN1CCOCC1 [Foretinib] (partner 0.25 µM)
In short: (§1)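 The day after seeding in 1536-well plates, lung cancer cell lines were treated by pin tool with a single drug, or with a fixed anchor-drug dose together with five library-drug doses (not always all listed) in √10 steps. After 5 days, a combined fix-and-stain solution (final 0.05% Triton X-100, 1% formaldehyde, 1 ug/ml Hoechst) was added. Nuclei counted on 4× images gave relative viability as treated counts over vehicle counts, reported as the median of duplicate plates.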

PAC-1 + Alpelisib = compound: C=CCc1cccc(/C=N/NC(=O)CN2CCN(Cc3ccccc3)CC2)c1O [PAC-1] + Cc1nc(NC(=O)N2CCC[C@H]2C(N)=O)sc1-c1ccnc(C(C)(C)C(F)(F)F)c1 [Alpelisib] (partner 2 µM)
In short: as §1

Ibrutinib + Linsitinib = compound: C=CC(=O)N1CCC[C@@H](n2nc(-c3ccc(Oc4ccccc4)cc3)c3c(N)ncnc32)C1 [Ibrutinib] + C[C@]1(O)C[C@@H](c2nc(-c3ccc4ccc(-c5ccccc5)nc4c3)c3c(N)nccn32)C1 [Linsitinib] (partner 1 µM)
In short: as §1

BMX-IN-1 + Decitabine = compound: C=CC(=O)Nc1cc(-n2c(=O)ccc3cnc4ccc(-c5ccc(NS(C)(=O)=O)cc5)cc4c32)ccc1C [BMX-IN-1] + Nc1ncn([C@H]2C[C@H](O)[C@@H](CO)O2)c(=O)n1 [Decitabine] (partner 2 µM)
In short: as §1

Cell Line	relative viability (BMX-IN-1 + Foretinib; first compound 0.02 µM)	relative viability (BMX-IN-1 + Foretinib; first compound 0.2 µM)	relative viability (BMX-IN-1 + Foretinib; first compound 0.6325 µM)	relative viability (BMX-IN-1 + Foretinib; first compound 2 µM)	relative viability (PAC-1 + Alpelisib; first compound 0.02 µM)	relative viability (PAC-1 + Alpelisib; first compound 0.06325 µM)	relative viability (PAC-1 + Alpelisib; first compound 0.2 µM)	relative viability (PAC-1 + Alpelisib; first compound 2 µM)	relative viability (Ibrutinib + Linsitinib; first compound 0.005 µM)	relative viability (Ibrutinib + Linsitinib; first compound 0.01581 µM)	relative viability (Ibrutinib + Linsitinib; first compound 0.05 µM)	relative viability (Ibrutinib + Linsitinib; first compound 0.1581 µM)	relative viability (Ibrutinib + Linsitinib; first compound 0.5 µM)	relative viability (BMX-IN-1 + Decitabine; first compound 0.02 µM)	relative viability (BMX-IN-1 + Decitabine; first compound 0.2 µM)	relative viability (BMX-IN-1 + Decitabine; first compound 0.6325 µM)	relative viability (BMX-IN-1 + Decitabine; first compound 2 µM)
NCI-H2023	0.928	1.12	1.06	0.926	0.576	0.592	0.654	0.673	0.601	0.494	0.53	0.596	0.456	0.236	0.247	0.223	0.295
UMC-11	1.15	1.13	0.981	1.11	0.982	0.992	1.05	1.09	0.903	0.987	1.17	1.14	0.938	0.604	0.526	0.66	0.664
NCI-H1755	0.833	0.891	1.05	0.905	0.925	0.918	0.865	0.826	1.02	0.92	1.06	1.02	0.903	0.644	0.683	0.795	0.758
NCI-H1666	0.959	1.04	1.03	0.935	0.917	0.971	1.06	0.993	0.86	0.628	0.615	0.955	0.422	0.673	0.746	0.839	0.716
NCI-H23	1.18	0.965	0.938	0.999	0.529	0.692	0.741	0.764	0.396	0.508	0.545	0.568	0.518	0.326	0.295	0.338	0.296
COR-L23	1.18	1.1	1.19	0.914	0.715	0.812	0.693	0.816	1.16	0.867	0.973	0.986	–	0.467	0.45	0.484	0.438
PC-14	1.04	1.05	1.16	0.922	0.989	0.856	0.938	0.962	1	0.949	0.976	0.902	0.462	0.18	0.227	0.292	0.305
LCLC-97TM1	1.01	0.917	1.03	1.1	–	0.215	0.281	0.192	0.179	–	0.175	0.2	0.169	0.259	0.224	0.208	0.264
HOP-62	1.26	1.27	1.09	1.1	1.07	0.875	0.798	0.85	0.761	0.771	0.979	1.17	1.07	0.214	0.255	0.26	0.237
NCI-H727	1.37	0.933	0.893	1.01	0.646	0.648	0.527	0.561	0.285	0.288	0.319	0.203	0.31	0.668	0.917	0.777	1.01
NCI-H1734	1.01	0.954	1.08	0.796	0.662	0.664	0.748	0.642	0.801	0.887	0.885	0.885	0.745	0.534	0.568	0.522	0.831
NCI-H1651	1	0.907	0.909	0.773	0.917	1.12	0.848	0.867	0.99	0.765	0.901	0.991	0.927	0.5	0.667	0.722	0.593
LK-2	1.59	1.54	1.04	1.03	1.08	1.22	1.2	0.971	0.422	0.7	0.552	0.377	0.528	0.262	0.326	0.269	0.335
NCI-H2009	1.38	1.26	1.24	1.28	1.1	1.13	1.13	1.15	1.21	1.13	1.14	1.23	1.18	0.381	0.402	0.41	0.368
NCI-H2347	0.826	1.03	1.36	0.854	1.08	1.13	0.992	1.05	–	0.979	1.04	0.816	1.05	0.647	0.678	0.608	0.75
NCI-H460	1.22	1.09	1.11	1.06	0.354	0.534	0.433	0.327	0.643	0.652	0.861	0.76	0.772	0.568	0.657	0.478	0.428
LC-2-ad	0.878	0.926	0.975	0.946	0.942	0.845	0.791	0.887	0.829	0.778	0.89	0.869	0.745	0.836	0.938	0.889	0.733
NCI-H596	0.953	1.25	0.872	0.714	0.428	0.561	0.472	0.446	1.13	0.946	0.99	0.996	0.841	1.04	1.14	0.945	1.2

Cell Line	relative viability (BMX-IN-1 + Foretinib; first compound 0.02 µM)	relative viability (BMX-IN-1 + Foretinib; first compound 0.2 µM)	relative viability (BMX-IN-1 + Foretinib; first compound 0.6325 µM)	relative viability (BMX-IN-1 + Foretinib; first compound 2 µM)	relative viability (PAC-1 + Alpelisib; first compound 0.02 µM)	relative viability (PAC-1 + Alpelisib; first compound 0.06325 µM)	relative viability (PAC-1 + Alpelisib; first compound 0.2 µM)	relative viability (PAC-1 + Alpelisib; first compound 2 µM)	relative viability (Ibrutinib + Linsitinib; first compound 0.005 µM)	relative viability (Ibrutinib + Linsitinib; first compound 0.01581 µM)	relative viability (Ibrutinib + Linsitinib; first compound 0.05 µM)	relative viability (Ibrutinib + Linsitinib; first compound 0.1581 µM)	relative viability (Ibrutinib + Linsitinib; first compound 0.5 µM)	relative viability (BMX-IN-1 + Decitabine; first compound 0.02 µM)	relative viability (BMX-IN-1 + Decitabine; first compound 0.2 µM)	relative viability (BMX-IN-1 + Decitabine; first compound 0.6325 µM)	relative viability (BMX-IN-1 + Decitabine; first compound 2 µM)
A-427	1.1	1.24	1.02	0.97	1.17	1.08	1.05	1.05	0.986	1.09	1.15	1.1	1.12	0.544	0.554	0.559	0.551
HCC-827	1.01	1.02	1.03	1.03	0.964	0.927	0.895	1	1.01	0.947	1.01	0.854	0.32	0.27	0.31	0.342	0.292
NCI-H1915	1.16	1.25	1.12	1.07	1.04	1.08	0.991	1.02	–	1.03	1.12	1.13	1.1	0.282	0.272	0.284	0.273
NCI-H322M	1.13	0.958	0.967	0.941	0.7	0.857	0.794	0.911	0.782	0.813	0.784	0.82	0.516	0.604	0.699	0.722	0.661
EKVX	0.784	0.902	0.965	0.893	0.788	0.956	0.801	0.899	0.893	0.944	1.12	1.05	0.613	0.333	0.281	0.617	0.381
EMC-BAC-2	1.04	0.984	1.06	0.985	0.72	0.801	0.737	0.67	0.777	0.703	0.637	0.795	0.586	0.95	0.993	1.1	1.03
HCC-15	1.24	1.13	1.11	1.02	0.924	0.831	0.854	0.851	0.883	0.85	0.935	0.89	0.835	0.721	0.651	0.652	0.713
LXF-289	1.08	1.03	1.06	1	1.1	1.02	1.06	1.01	0.988	0.96	0.923	0.955	0.927	0.388	0.338	0.374	0.41
NCI-H358	0.855	0.777	0.887	0.701	0.811	0.836	0.924	0.572	0.563	0.394	0.355	0.743	0.28	0.181	0.2	0.239	0.214
NCI-H1395	1.1	0.968	0.949	0.908	1.19	1.02	1.02	1.02	1.16	0.968	0.995	1.45	1.13	0.781	0.695	0.677	0.769
NCI-H838	1.3	1.25	1.24	0.982	1.07	1.01	0.962	1.04	1.02	1	0.983	1.08	1.01	0.5	0.439	0.466	0.444
NCI-H520	0.825	0.879	0.864	0.825	0.704	0.979	0.927	0.925	0.928	0.76	0.971	1.03	0.883	0.549	0.494	0.449	0.529
SW 1573	0.953	0.947	1.02	0.337	0.646	0.82	0.571	0.771	0.732	0.761	0.925	0.814	0.809	0.575	0.532	0.46	0.459
201T	1.25	1.14	0.912	1.12	0.935	1	1.03	1.01	0.961	1.05	1.01	1.06	0.907	0.819	0.847	0.864	0.918
NCI-H1437	1.34	1.27	1.31	1.32	0.953	0.932	0.906	0.716	1.01	0.926	0.989	1.09	0.993	0.672	0.603	0.623	0.575
NCI-H1975	0.938	1.08	1.01	0.93	0.597	0.678	0.621	0.642	0.916	0.834	0.844	0.985	0.503	0.362	0.345	0.42	0.417
RERF-LC-KJ	0.971	1.02	1.08	0.868	0.768	0.8	1.33	0.783	0.903	0.804	0.818	0.824	0.778	0.788	0.692	0.851	0.758
